The values below come from patent US8273775B2, “Non-steroidal brassinosteroid mimetic” (priority 2006, dated 2012).

Test [1] addresses T1, ASKθ (group III) (Arabidopsis thaliana, UniProt Q96287).
T1 sequence (Q96287 1-472): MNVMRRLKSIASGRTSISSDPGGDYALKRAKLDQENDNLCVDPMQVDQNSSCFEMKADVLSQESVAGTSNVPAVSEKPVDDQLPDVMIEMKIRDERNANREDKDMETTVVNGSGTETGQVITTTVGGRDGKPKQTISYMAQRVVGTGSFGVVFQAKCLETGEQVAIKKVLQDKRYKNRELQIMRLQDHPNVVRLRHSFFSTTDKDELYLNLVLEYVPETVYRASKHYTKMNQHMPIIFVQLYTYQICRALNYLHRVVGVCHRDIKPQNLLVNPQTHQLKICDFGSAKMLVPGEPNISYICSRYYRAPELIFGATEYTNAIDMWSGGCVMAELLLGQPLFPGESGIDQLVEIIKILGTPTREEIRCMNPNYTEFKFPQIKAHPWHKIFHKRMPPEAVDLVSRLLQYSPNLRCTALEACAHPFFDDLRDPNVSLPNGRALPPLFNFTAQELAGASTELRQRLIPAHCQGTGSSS
Description: ASK kinase assay with MBP as substrate, ASKθ. Type of test: biochemical. The following applies: 10 μM abrasin; read-out: residual activity. Here is the method: (§1) Coomassie staining was used as a loading control. b, Autoradiography of kinase assays with nine ASKs with MBP as a substrate in the presence or absence of 10 μM abrasin.
(§2) For in vitro kinase assays, MBP, MBP-BES1, and MBP-bes1 (20 ng each) were incubated with GST-BIN2 or GST-BRI1 kinase (200 ng each) in 20 μl of kinase buffer (20 mM Tris [pH 7.5], 100 mM NaCl, and 12 mM MgCl2) and 10 μCi ^32P-γATP. After incubation at 37° C. for 40 min, the reactions were stopped by adding 20 μl of 2×SDS buffer and boiling at 94° C. for 5 min. Proteins were resolved by a PAGE gel and phosphorylation was detected by exposing the dried gel to X-ray film. Proteins from 35S::bes1-GFP transgenic plants were used for phosphatase (CIP) treatments as described (Fankhauser et al., 1999).
(§3) Besides BIN2, nine additional GSK-3 kinases (also designated ASKs for Arabidopsis SHAGGY-related kinases) divided into four subgroups (I-IV) have been identified in Arabidopsis (Jonak and Hirt, 2002; Yoo et al. 2006). To determine the specificity of abrasin, its effect on the kinase activity of all ASKs was analyzed with myelin basic protein (MBP) as a general substrate.

In test [2] the target is T2, ASKβ (group III) (Arabidopsis thaliana, UniProt O23145).
T2 sequence (O23145 1-431): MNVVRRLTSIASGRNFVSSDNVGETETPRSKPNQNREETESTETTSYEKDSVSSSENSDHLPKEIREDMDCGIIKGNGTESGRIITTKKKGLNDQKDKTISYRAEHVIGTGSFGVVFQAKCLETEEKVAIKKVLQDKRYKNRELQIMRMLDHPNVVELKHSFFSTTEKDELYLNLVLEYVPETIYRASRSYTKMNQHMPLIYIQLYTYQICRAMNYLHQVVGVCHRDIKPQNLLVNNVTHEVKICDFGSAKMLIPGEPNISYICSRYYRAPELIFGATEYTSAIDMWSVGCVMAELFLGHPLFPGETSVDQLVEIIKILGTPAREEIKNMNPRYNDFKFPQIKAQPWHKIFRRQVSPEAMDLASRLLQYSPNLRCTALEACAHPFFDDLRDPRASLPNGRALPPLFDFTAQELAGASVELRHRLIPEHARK
Briefly: ASK kinase assay with MBP as substrate, ASKβ. It is filed as biochemical. The following applies: 10 μM abrasin. Here is the method: as §1, §2, §3

Take `O=C(O)CCC(=O)Nc1ccc(Br)cn1` [abrasin, 4-[(5-bromo-2-pyridinyl)amino]-4-oxobutanoic acid]: in test [1], the remaining activity at 10 µM worked out at 20%. In addition, the “effect on kinase activity” value in test [2] was “not affected”.
